Measurements taken from patent publication EP0719267B1, “SECOND MESSENGER CELL SIGNALING INHIBITORS” (CELL THERAPEUTICS, INC., priority 1993, dated 1994).
Read-outs that look alike come from different tables or passages of the source. Blank lines part the entries; values can stand above or below the compound they belong to.

How the values were obtained:
Lewis Lung Carcinoma = Lewis Lung Carcinoma (3LL) in vivo experiment; set-up: species or system BDFI mice
Method: Figure 43 reports results in an in vivo experiment showing that inventive compound no. […] BDFI mice were injected subcutaneously with 1 x 10^6 3LL cells on day 0 and then treated with inventive compound no. (20 mg/kg i.p.), cyclophosphamide (20 mg/kg) or vehicle on alternate days beginning on day 7. The animals were sacrificed on day 20 and the lung tumors dissected and weighed. Figure 43 illustrates that compound no. […] Figure 44A and 44B illustrates platelet and neutrophil counts, respectively, of the sacrificed mice in the immediately preceding assay. […] 50.

IL-2 = IL-2 production in thymocytes stimulated with ConA and IL-1 (ELISA); assay type: cell-based, murine; conditions: ConA and IL-1, 4 days
From the text: Thymocytes were stimulated with ConA and IL-1 for 4 days with or without adding inventive compounds to the culture media. The supernatants were removed and assayed by ELISA for IL-2 levels by a commercially available kit.

B16 melanoma cells = assay: B16 melanoma in vivo study: bone marrow toxicity; set-up: species or system mice; conditions: 10 mg/kg QD or 20 mg/kg QOC
Method: Figures 41A, 41B and 41C illustrates the results from an in vivo study in mice where B16 melanoma cells were injected intravenously through a tail vein on day 0 and compound no. 50 was administered inter parenterally at 10 mg/kg QD or 20 mg/kg QOC, starting days 1-14. The mice were sacrificed on day 15 and the lungs were dissected and fixed in formalin. In addition bone marrow toxicity was evaluated by measuring neutrophil and platelet counts in the mice on day 15.

[1] = tested on: normal human bone marrow stromal cells; assay: Cytotoxicity in normal bone marrow stromal cells (vital dye uptake); assay type: cell-based; conditions: much higher concentrations than cytotoxic to tumor cells
Method: Human bone marrow stromal cells (1 x 10^4 cells/well) were plated in 96 well plates in McCoy's medium with serum and incubated overnight. Different dilutions of inventive compound no. 50 were added and viable cell counts made by vital dye uptake.

[2] = tested on: human aortic smooth muscle cells (aortic SMC); assay: Growth factor-induced proliferation of aortic smooth muscle cells; assay type: cell-based; conditions: 5 µM
Method: 58. One assay was used for investigating effects on PDGF-induced proliferation of human aortic smooth muscle cells (aortic SMC). Cells, purchased from a commercial supplier (Cell Systems, Inc., Seattle, WA), were cultured with various concentrations of PDGF-BB with and without addition of compound no. 58 (5 µM). […] 58 inhibited PDGF-induced proliferation even at high PDGF concentrations providing maximum proliferative stimulation. In addition, some cultures were treated 1 hour prior to PDGF stimulation with inventive compound no. 58. As shown, PDGF stimulated proliferation in this cell line. Addition of 5 µM of compound no. […] 58 were observed.
Another assay was used for investigating inhibitory effects of inventive compound no. 58 on either basic or acidic FGF-induced proliferation in human aortic smooth muscle cells (aortic SMC). Disregulated bFGF- or aFGF-induced proliferation is linked to SMC proliferation and neointimal occlusion in atherogenesis and restenosis and plays a role in autocrine and paracrine stimulation of tumor cells and tumor cell-induced angiogenesis. In this assay, cells were grown in reduced serum (0.5% fetal calf serum) for 24 hours prior to stimulating with various concentrations of […]. Cells were stimulated with various concentrations overnight of either aFGF or bFGF, adding 5µM of compound no. 58 in selected cultures. Compound no. […] Results shown in figure 20A (aFGF) and figure 20B (bFGF) illustrate the degree of inhibition.
Figures 65A-65F illustrate inhibition of proliferation in either human aortic or pulmonary smooth muscle cells (SMC) by inventive compound no. 58. Procedurally, cells were cultured in 0.5% serum containing medium 24 hours prior to stimulation with various concentrations of either PDGF (figs. 65A and 65B), acidic FGF (figs. 65C and 65D) or basic FGF (figs. 65E and 65F). Cells were stimulated for 24 hours prior to labeling with ^3H-TdR for 4 hours and harvested and counted by scintillation. Compound no. 58 was added 1 hour prior to stimulation at a concentration of 5 µM. Even at points of maximum stimulation of the growth factors, compound no. […] In addition cell number was assessed and those treated with compound no.

human TNFα = assay: Whole blood ex vivo assay of TNF release (ELISA); assay type: cell-based; conditions: mouse TNFα and human IL-1α, 6 hours
Method: Figure 74 illustrates that inventive compound no. […] 58 using a human whole blood ex vivo assay. In this assay, human whole blood was stimulated with mouse TNFα and human IL-1α with or without various concentrations of inventive compound no. 58. After 6 hours, the plasma was analyzed for human TNFα levels using a commercial ELISA.

Balb/3T3 cells = assay: Cytotoxicity to PDGF-stimulated Balb/3T3 cells (BCECF); assay type: cell-based; conditions: fig. 66B
Method: LD50 values were determined using a cytotoxicity assay, as in Example 32. In these assays, Balb/3T3 cells, stimulated with PDGF and treated with one of the above inventive compounds in a manner identical to the tritiated thymidine procedure above, were incubated instead with a viable dye BCECF, a fluorescent dye. Fluorescence was measured using a fluorescent plate reader.

[3] = tested on: human smooth muscle cells (SMC); assay: Chemotaxis of smooth muscle cells to PDGF (Boyden chamber); assay type: cell-based; conditions: eight hours
Method: Figure 71 illustrates that inventive compound no. […] In the assay, cells were seeded in a Boyden chamber with or without various concentrations of inventive compound no. 58. Eight hours later, the number of cells that had migrated were scored visually. Inventive compound no.

[4] = tested on: murine mixed tumor lymophocyte culture (MTLC); assay: Mixed tumor lymphocyte culture (MTLC), splenocytes with 2PK3; assay type: cell-based
Method: (§1) Figures 50A and 50B illustrate that compound no. 45 inhibits a murine mixed tumor lymophocyte culture (MTLC) and a human mixed leukocyte reaction (MLR). In the MTLC, splenocytes were stimulated (co-culture) with an alloantigen, B cell tumor target cell line (2PK3) in the presence or absence of compound no. 45. Cells were stimulated for 3 days, ^3H-TdR was added and the cells were harvested 4 hours later. Incorporation of ^3H-TdR was determined by liquid scintillation. Background counts were 1000-1200 CPM. For the human MLR, purified peripheral lymphocytes from two HLA disparate individuals were co-cultured for 6 days with or without compound no. 45. On the 7th day the cultures were pulsed with ^3HTdR for 24 hours and counted by scintillation.
In an assay related to the MTLC assay, cytokines levels were measured by ELISA from the supernatants of an MTLC culture. […] 45. Figures 60B and 60C illustrate that compound no.

[5] = tested on: human mixed leukocyte reaction (MLR); assay: Mixed leukocyte reaction (MLR), two HLA disparate individuals; assay type: cell-based; conditions: 144 h, 6 days co-culture
Method: as §1

murine splenocytes = assay: Anti-CD3 stimulated splenocyte proliferation; assay type: cell-based; conditions: Mus musculus
Method: In the assay, murine splenocytes were activated with a monoclonal antibody directed against CD3 (1 µg/ml), resulting in an IL-2 mediated proliferative response.
45 (1 µM). […] The supernatants were harvested and assayed for cytokine levels using commercial ELISAs for proliferation.

[6] = 20 mg/kg i.p. alternate days from day 7, day 20

Structure (SMILES): CCCCCCCCCCCCNCC(O)CCCCCCCCCn1c(=O)c2c(ncn2C)n(C)c1=O (stereo not shown) [compound no. 50, 1-(11-Dodecylamino-10-hydroxyundecyl)-3,7-dmethylxanthine]
lung tumor weight compared with cyclophosphamide (20 mg/kg) (Lewis Lung Carcinoma; [6]): superior results over an existing cancer chemotherapeutic agent
tumor growth (Lewis Lung Carcinoma; [6]): can arrest growth of Lewis Lung Carcinoma in mice
platelet and neutrophil counts (Lewis Lung Carcinoma; 20 mg/kg i.p., sacrificed mice): not altered from vehicle
IL-2 production (IL-2): do not inhibit production of IL-2
neutrophil and platelet counts (B16 melanoma cells; day 15): increased counts over non-treated control animals
bone marrow toxicity (B16 melanoma cells; days 1-14, day 15): not toxic to the bone marrow
cytotoxic activity [1]: lacks cytotoxic activity in normal human bone marrow stromal cells

Structure (SMILES): COc1cc(CNCC(O)CCCCCCCCCn2c(=O)c3c(ncn3C)n(C)c2=O)cc(OC)c1OC (stereo not shown) [compound no. 58, 1-[11-(3,4,5-Trimethoxybenzylamino)-10-hydroxyundecyl]-3,7-dimethylxanthine]
inhibition of PDGF-induced proliferation [2]: blocked PDGF-stimulated proliferation
inhibition of aFGF- and bFGF-induced proliferation [2]: a potent inhibitor of both aFGF- and bFGF-induced proliferation
toxic effects [2]: No toxic effects
inhibition of proliferation at maximum stimulation by PDGF, acidic FGF or basic FGF ([2]; added 1 hour prior): completely inhibited cellular proliferation in both aortic and pulmonary SMC
cell number following growth factor stimulation ([2]; aortic and pulmonary SMC): showed no increase in cell number following growth factor stimulation
TNF release (human TNFα): inhibited TNF release
cytotoxicity (Balb/3T3 cells): not cytotoxic to Balb/3T3 cells
PDGF-directed chemotaxis [3]: had no effect on PDGF-directed SMC chemotaxis

IC50 ([4]; Mus musculus, 72 h, 3 days): ~500 nM
IC50 [5]: ~500 nM
Structure (SMILES): CCCCCCCCNCC(O)CCCCCCCCCn1c(=O)c2c(ncn2C)n(C)c1=O (stereo not shown) [compound no. 45]
IFN-γ release ([4]; ELISA of supernatants): inhibited IFN-γ release
IL-2 or TNFα release ([4]; ELISA of supernatants): did not inhibit either IL-2 or TNFα release from the MTLC
overall proliferation ([4]; fig. 60A): inhibition of overall proliferation
IC50 (murine splenocytes; anti-CD3 (1 µg/ml), read-out: IC50): ~850 nM
IC50 (murine splenocytes; read-out: concentration approximately equal to IC50 value): ~1000 nM
